Literature values as cited in EP1382610A2, “Conductive metal-containing nucleic acids” (The University of Saskatchewan, priority 1997, dated 1999).

Details: imino protons

pKa | Compound
9.9 | Cc1c[nH]c(=O)[nH]c1=O [T, thymine]
9.4 | Nc1nc2nc[nH]c2c(=O)[nH]1 [G, guanine]
